The text below walks through data of patent US20080293681A1, “SPRAYABLE PHARMACEUTICAL COMPOSITIONS COMPRISING A VITAMIN D DERIVATIVE AND AN OILY PHASE” (GALDERMA S.A., priority 2005, published 2008).

A short description of data set [1]: Stability of calcitriol in Miglyol 812 (caprylic/capric triglycerides), HPLC assay against reference substance. It is filed as physicochemical. Conditions: 30 ppm in Miglyol 812 with 0.4% BHT. An excerpt: (§1) The following example describes the stability data for calcitriol in the various excipients preferred for the composition according to the invention, including caprylic/capric triglycerides and cetearyl isononanoate. Stability of calcitriol in Miglyol 812 (caprylic/capric triglycerides) Solution of calcitriol at 30 ppm in qs 100% of Miglyol 812 in the presence of 0.4% of BHT. Assaying technique by HPLC against reference substance. At the initial time (T0), it is considered that the composition contains 100% of calcitriol. Measured concentration of calcitriol as % relative to T0: […]

A short description of data set [2]: Stability of calcitriol in Cetiol SN (cetearyl isononanoate), HPLC assay against reference substance. Type of data set: physicochemical. Conditions: 30 ppm in Cetiol SN with 0.4% BHT.
Excerpt: as §1, with “Cetiol SN (cetearyl isononanoate)” for “Miglyol 812 (caprylic/capric triglycerides)”, “Cetiol SN (cetearyl isononanoate)” for “Miglyol 812”

As to `C=C1/C(=C\C=C2/CCC[C@]3(C)[C@@H]([C@H](C)CCCC(C)(C)O)CC[C@@H]23)C[C@@H](O)C[C@@H]1O` [calcitriol], the “Measured concentration of calcitriol as % relative to T0” value in data set [1] (+4° C., T 2 weeks) was 98.3%; in data set [1] (+4° C., T 4 weeks) it was 105.2%; in data set [1] (+40° C., T 2 weeks), 91%; in data set [1] (+40° C., T 4 weeks), 93.8%; in data set [1] (AT, T 2 weeks), 95.1%; in data set [1] (AT, T 4 weeks), 98.0%. Further, the “Measured concentration of calcitriol as % relative to T0” value in data set [2] (+4° C., T 2 weeks) amounted to 98.6%; in data set [2] (+4° C., T 4 weeks), 98.1%; in data set [2] (+40° C., T 2 weeks) it was 99.0%; in data set [2] (+40° C., T 4 weeks) it was 98.9%; in data set [2] (AT, T 2 weeks), 98.7%; in data set [2] (AT, T 4 weeks), 98.4%.
